Data on two molecules can be found in patent US20240307420A1, “IMPROVED METHODS FOR THE USE OF PSYCHEDELICS” (TRYP Therapeutics Inc., priority 2021, published 2024).

In general, Tmax refers to the time from dosing to the highest level. Usually AUC(0-t) stands for the area under the concentration-time curve up to a stated or last time point. A higher AUC(0-t) goes with high exposure. The Cmax is the highest concentration seen after dosing.

For data set [1], the system named is rats. Nature of the data set: Head twitching response (HTR) after one-hour intravenous infusion, video recording. The class given is in vivo, Sprague Dawley rats. Particulars: for Time after termination of infusion up to which head twitching was observed: after one hour 10 mg/kg IV infusion. As for the experimental part: To assess the pharmacodynamics (PD) of intravenously infused psychedelics, animal head-twitching was recorded as an indicator of achieving the dissociative state. Head twitching response (HTR) is used as a surrogate PD marker for the animals achieving or being in the dissociative or psychedelic state (for example, as described in Zhuk et al., Toxins 2015, 7, 1018-1029; Halberstadt et al., J Psychopharmacol. 2011 25(11): 1548-1561). HTR was also used to determine when the end of the dissociative state occurred following discontinuation of the IV infusion.
To assess HTR, a video monitoring system was used to record the animals in this study from discontinuation of the infusion through to the terminal sampling time point (1-hour post infusion). A camera was positioned such that the animals were visible from above. The recording was saved for review and the time of the observed head-twitching behavior, the duration of the observed behavior, and any additional atypical observations were documented.
The number of head-twitching events observed within the 60 minute time period after the one hour intravenous infusion of each of the 3 rats receiving psilocin or psilocybin, were determined from the video recordings. […] Upon termination of the IV infusion of either psilocin or psilocybin, head twitching activity subsided within 50 minutes, supporting the rapid termination of the dissociative or psychedelic, compared to previously reported termination of the dissociative state after an oral administration of psilocybin.

Data set [2] is described as follows: Plasma psilocin pharmacokinetics during and after one-hour intravenous infusion of psilocin or psilocybin. Particulars: for AUC(0-t): AUCT; for concentration at 0.25 h / concentration at 0.5 h / concentration at 1 h / concentration at 2 h / concentration at 4 h / concentration at 6 h / concentration at 8 h: Plasma concentration of psilocin.
Data set [3] has as its system rats. Nature of the data set: Von Frey assay (VFA) withdrawal threshold in formalin-induced rat pain model. The class given is in vivo. As to conditions: contra-lateral paw; single 10 mg/kg IV administration. From the text: (§1) Chronic pain in rats was induced by injection of formalin into the hind paw. The rats subsequently were intravenously administered psilocybin, and assessed for changes in pain perception over an extended period of time. The formalin pain model is a translational animal model for chronic nociplastic pain (Vanini G., Sleep 2016; 39(1): 133-42), including fibromyalgia, phantom limb pain or complex regional pain syndrome. In the formalin pain model, in addition to experiencing extra pain in the formalin-injected paw, the animal experiences increased pain perception (i.e., hyperalgesia) in extremities not injected with formalin (e.g., the contra-lateral hind paw compared to the one injected with formalin). The pain perception was measured in the contra-lateral paw to assess the potential benefit of psychedelics in nociplastic pain disorders. Reduction in pain perception and the duration of pain reduction were examined following intravenous bolus administration of 10 mg/kg psilocybin, administered over 3 minutes.
Two types of pain perception were measured. First, the Von Frey assay (VFA) was used to measure pain due to pressure exerted on the extremity (i.e., mechanical allodynia). Specifically. […] The minimum amount of force required to evoke a paw withdrawal response in each trial was determined to be the minimum withdrawal threshold for that animal trial. […]

In data set [4] the test system is rats. Nature of the data set: Head twitching response in unrestrained rats prior to, during and after 60 minute infusion (separate study). The class given is in vivo. As to conditions: 10 mg/kg over 60 minutes IV. Here is the method: In a separate study, unrestrained rats were infused with 10 mg/kg psilocybin over a 60 minute period and head twitching response (HTR) was recorded prior to during and after IV administration. HTR was consistently observed in all tested rats, within 5 minutes after initiation of the infusion, and persisted during the 60-minute infusion period. HTR was discontinued in the animals soon after the termination of the infusion, generally within 30 minutes after the termination of the infusion. The results of the HTR supported the more rapid achievement of the dissociative or psychedelic state, coincident with the rise in systemic plasma psilocin levels, and rapid exit from the dissociative or psychedelic state after the termination of infusion (e.g., as assessed in Example 1).

In data set [5] the test system is rats. Put plainly: Hot Plate assay (HPA) withdrawal latency in formalin-induced rat pain model. The class given is in vivo. As to conditions: 52.5° C. hot plate; single 10 mg/kg IV administration.
Source text: as §1, with “Reduction in pain perception and the duration of pain reduction were examined following intravenous bolus administration of 10 mg/kg psilocybin, administered over 3 minutes.” left out
The second pain measurement was based on the Hot Plate Assay (HPA), which measures the withdrawal latency at temperatures that register a painful response (i.e., thermal hyperalgesia). […] Once heated, each animal was placed in cylindrical tube on the hot plate and the latency to lick a hind paw or observed overt escape behavior (e.g., attempt to jump out of cylinder) was recorded (Ingram et al., Neruopsychopharmacology 2007; 32(3):600-6; Gunn et al., J Pain 2011; 12(2):222-7; Hestehave et al., Lab Anim 2016; 51(3):264-72). […]

The conditions of data set [6]: single oral administration of psilocybin at 0.225 mg/kg; cited from earlier work.
Setting [7] is: plasma psilocin, individual rats, 10 mg/kg psilocin one-hour IV infusion.

SMILES strings stand for the structures. Values joined by “and” are separate entries in the source; they are usually repeats but may differ in a detail not shown here. Identical values can stand only once.

Take `CN(C)CCc1c[nH]c2cccc(O)c12` [psilocin, 4-hydroxy-N,N-dimethyltryptamine]: in the data set with rats [1] (60 minute period after one hour 10 mg/kg IV infusion), the “Rats in which head-twitching was observed” value is on record as 2 of 3. For the same molecule, the “Time after termination of infusion up to which head twitching was observed” value in the data set on rats [1] is ≤ 16 min. For the same molecule, the “Plasma concentration of psilocin” value in data set [2] (individual rats, 10 mg/kg psilocin one-hour IV infusion, sampling time 0.25 h) is 1031.8 ng/mL and 982.7 ng/mL; in data set [2] (individual rats, 10 mg/kg psilocin one-hour IV infusion, sampling time 0.5 h), 1731.6 ng/mL and 1489.3 ng/mL; in data set [2] (individual rats, 10 mg/kg psilocin one-hour IV infusion, sampling time 1 h), 2159.5 ng/mL and 1623.2 ng/mL; in data set [2] (individual rats, 10 mg/kg psilocin one-hour IV infusion, sampling time 2 h), 965.6 ng/mL and 740.4 ng/mL; in data set [2] (individual rats, 10 mg/kg psilocin one-hour IV infusion, sampling time 4 h), 249.1 ng/mL and 231.7 ng/mL; in data set [2] (individual rats, 10 mg/kg psilocin one-hour IV infusion, sampling time 6 h) it was 80.2 ng/mL and 59.6 ng/mL. In data set [2] (individual rats, 10 mg/kg psilocin one-hour IV infusion, sampling time 8 h), the “Plasma concentration of psilocin” value was 22.5 ng/mL and 26.8 ng/mL. In addition, the Tmax in data set [2] (male, Sprague Dawley, rat, plasma, iv, 10 mg/kg) is 1 h. Further, the AUC(0-t) stood at 3550 ng·h/mL in data set [2] (male, Sprague Dawley, rat, plasma, iv, 10 mg/kg, plasma psilocin, individual rats, 10 mg/kg psilocin one-hour IV infusion) and 3980 ng·h/mL in data set [2] (male, Sprague Dawley, rat, plasma, iv, 10 mg/kg, plasma psilocin, mean of 3 rats, 10 mg/kg psilocin one-hour IV infusion). For the same molecule, the Cmax in data set [2] (male, Sprague Dawley, rat, plasma, iv, 10 mg/kg, Cmax, plasma psilocin, individual rats, 10 mg/kg psilocin one-hour IV infusion) is 1610 ng/mL; in data set [2] (male, Sprague Dawley, rat, plasma, iv, 10 mg/kg, Cmax, plasma psilocin, mean of 3 rats, 10 mg/kg psilocin one-hour IV infusion), 1800 ng/mL; in data set [2] (setting [7]), 2159.5 ng/mL and 1623.2 ng/mL. For the same molecule, the concentration at 0.25 h came out at 1070 ng/mL in data set [2] (male, Sprague Dawley, rat, plasma, iv, 10 mg/kg, individual rats, 10 mg/kg psilocin one-hour IV infusion, sampling time 0.25 h) and 1030 ng/mL in data set [2] (male, Sprague Dawley, rat, plasma, iv, 10 mg/kg, mean of 3 rats, 10 mg/kg psilocin one-hour IV infusion, sampling time 0.25 h). Moreover, the concentration at 0.5 h in data set [2] (male, Sprague Dawley, rat, plasma, iv, 10 mg/kg, individual rats, 10 mg/kg psilocin one-hour IV infusion, sampling time 0.5 h) is 1510 ng/mL; in data set [2] (male, Sprague Dawley, rat, plasma, iv, 10 mg/kg, mean of 3 rats, 10 mg/kg psilocin one-hour IV infusion, sampling time 0.5 h), 1580 ng/mL. Also, the concentration at 1 h came out at 1610 ng/mL in data set [2] (male, Sprague Dawley, rat, plasma, iv, 10 mg/kg, individual rats, 10 mg/kg psilocin one-hour IV infusion, sampling time 1 h) and 1800 ng/mL in data set [2] (male, Sprague Dawley, rat, plasma, iv, 10 mg/kg, mean of 3 rats, 10 mg/kg psilocin one-hour IV infusion, sampling time 1 h). Besides, the concentration at 2 h in data set [2] (male, Sprague Dawley, rat, plasma, iv, 10 mg/kg, individual rats, 10 mg/kg psilocin one-hour IV infusion, sampling time 2 h) amounted to 714 ng/mL; in data set [2] (male, Sprague Dawley, rat, plasma, iv, 10 mg/kg, mean of 3 rats, 10 mg/kg psilocin one-hour IV infusion, sampling time 2 h) it was 807 ng/mL. Besides, the concentration at 4 h in data set [2] (male, Sprague Dawley, rat, plasma, iv, 10 mg/kg, individual rats, 10 mg/kg psilocin one-hour IV infusion, sampling time 4 h) is 164 ng/mL; in data set [2] (male, Sprague Dawley, rat, plasma, iv, 10 mg/kg, mean of 3 rats, 10 mg/kg psilocin one-hour IV infusion, sampling time 4 h) it was 215 ng/mL. The concentration at 6 h in data set [2] (male, Sprague Dawley, rat, plasma, iv, 10 mg/kg, individual rats, 10 mg/kg psilocin one-hour IV infusion, sampling time 6 h) came out at 47.7 ng/mL; in data set [2] (male, Sprague Dawley, rat, plasma, iv, 10 mg/kg, mean of 3 rats, 10 mg/kg psilocin one-hour IV infusion, sampling time 6 h), 62.5 ng/mL. Moreover, the concentration at 8 h in data set [2] (male, Sprague Dawley, rat, plasma, iv, 10 mg/kg, individual rats, 10 mg/kg psilocin one-hour IV infusion, sampling time 8 h) was found to be 17.3 ng/mL; in data set [2] (male, Sprague Dawley, rat, plasma, iv, 10 mg/kg, mean of 3 rats, 10 mg/kg psilocin one-hour IV infusion, sampling time 8 h) it was 22.2 ng/mL. The AUCT in data set [2] (setting [7]) is 4656.4 ng·h/mL and 3741.6 ng·h/mL.

With `CN(C)CCc1c[nH]c2cccc(OP(=O)(O)O)c12` [psilocybin, [3-(2-dimethylaminoethyl)-1H-indol-4-yl] dihydrogen phosphate], the “Time after termination of infusion up to which head twitching was observed” value with rats [1] is listed as “up to 50 minutes”. For the same molecule, the “Duration of statistically significant increase in VFA withdrawal threshold” value in the data set with rats [3] stood at 3 weeks. For the same molecule, the “Time to discontinuation of head twitching response after termination of the infusion” value in the data set with rats [4] was ≤ 30 min. In addition, the “Time to head twitching response after initiation of the infusion” value with rats [4] (all tested rats) is ≤ 5 min. The “Duration of improved pain sensitivity response (HPA withdrawal latency) compared to saline control” value with rats [5] is given as “at least 4 weeks”. Also, in data set [6], the “Average peak concentration of psilocin in plasma” value was 8.2+/−2.8 ng psilocin/ml plasma and the “Time of peak plasma levels of psilocin” value was 105 ± 37 min.
